# From patent publication US20220098154A1 (IDEAYA Biosciences, Inc., priority 2019, published 2022)
# Target: T1, Pol theta polymerase domain (residues 1819-2590) (Homo sapiens, UniProt O75417)
# T1 construct: Pol theta polymerase domain (residues 1819-2590)
# T1 sequence (O75417 1819-2590): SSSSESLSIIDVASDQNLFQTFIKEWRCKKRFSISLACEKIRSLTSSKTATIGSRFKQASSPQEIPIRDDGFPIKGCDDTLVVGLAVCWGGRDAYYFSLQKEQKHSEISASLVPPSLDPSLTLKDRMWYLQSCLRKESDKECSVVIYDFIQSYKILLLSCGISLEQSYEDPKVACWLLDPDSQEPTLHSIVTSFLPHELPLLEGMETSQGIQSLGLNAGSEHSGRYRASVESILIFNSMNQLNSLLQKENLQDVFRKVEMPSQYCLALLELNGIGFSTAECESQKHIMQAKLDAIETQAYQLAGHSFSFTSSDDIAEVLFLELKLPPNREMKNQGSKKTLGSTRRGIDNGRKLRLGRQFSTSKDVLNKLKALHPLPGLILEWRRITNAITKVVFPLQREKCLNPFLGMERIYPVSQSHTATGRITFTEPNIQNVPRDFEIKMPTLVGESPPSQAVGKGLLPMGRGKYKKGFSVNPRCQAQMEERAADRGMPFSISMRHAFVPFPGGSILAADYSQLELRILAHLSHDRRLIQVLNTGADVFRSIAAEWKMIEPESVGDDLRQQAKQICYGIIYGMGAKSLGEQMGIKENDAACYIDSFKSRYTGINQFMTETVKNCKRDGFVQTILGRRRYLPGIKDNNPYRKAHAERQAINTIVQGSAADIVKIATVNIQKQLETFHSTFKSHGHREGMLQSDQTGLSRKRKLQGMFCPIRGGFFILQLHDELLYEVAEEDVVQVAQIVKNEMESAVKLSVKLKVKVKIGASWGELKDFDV
# Test: Primer extension assay: inhibition of polymerase activity of Pol theta (molecular beacon fluorescence)
# Format: biochemical
# Details: Pol theta polymerase domain 4 nM; 15 min pre-incubation; fluorescence change over 30 min (ex 485 nm, em 535 nm); 11-point dilution series
# Description: The ability of the compounds of Formula (I) to inhibit polymerase activity of Pol theta was determined using the assay described below.
# A mixture of 20 uL of Pol theta polymerase domain (residues 1819-2590) at a final concentration of 4 nM in assay buffer (20 m M TRIS, pH 7.80, 50 mM KCl, 10 mM MgCl2, 1 mM DTT, 0.01% BSA, 0.01% Tween20) was added to test compounds (11-point dilution series of test compounds) except the low control wells without test compounds. The above enzyme and test compound inhibitor mixture was then incubated at room temperature for 15 min. An equal volume (20 μl) of dNTP substrate mixture (48 μM) and primed molecular beacon DNA (obtained by annealing template SEQ ID NO 2: (5′-CCTTCCTCCCGTGTCTTG-TACCTTCCCGTCA-GGAGGAAGG-3′) with 5′-TAMRA and 3′-BHQ and primer DNA (SEQ ID NO: 3; 5′-GACGGGAAGG-3′) in 10 mM Tris-HCl pH 8.0, 100 mM NaCl buffer) (96 nM) in assay buffer was added to all the test wells. The inhibition activity was measured by monitoring the fluorescence change over 30 min at 535 nm upon excitation at 485 nm. The high control (DMSO with enzyme) with high fluorescence intensity represents no inhibition of polymerase reaction while the low control (DMSO with buffer) with low fluorescence intensity represents full inhibition of polymerase activity. Slope of the reaction progress curves were used to calculate the rate of polymerization. The rates were used to determine the percent inhibition using a four-parameter inhibition model to generate IC50, Hill slope and max inhibition.
row,SMILES,IC50
1,"Cc1nc(NCC(=O)N(C)c2cccc(C#N)c2)c(C#N)c(C)c1Cl [Example 21, 2-((5-chloro-3-cyano-4,6-dimethylpyridin-2-yl)-amino)-N-(3-cyanophenyl)-N-methylacetamide]",200 to 500 nM
2,"CN(C(=O)CNc1nc(C(F)(F)F)cc(C(F)(F)F)c1C#N)c1ccc2ncncc2c1 [Example 57, 2-((3-cyano-4,6-bis(trifluoromethyl)pyridin-2-yl)amino)-N-methyl-N-(quinazolin-6-yl)acetamide]",200 to 500 nM
3,"Cc1nc(N[C@@H](C)C(=O)N(C)c2ccc(F)cc2)c(C#N)c(C)c1Cl [Example 25, (S)-2-((5-chloro-3-cyano-4,6-dimethylpyridin-2-yl)-amino)-N-(4-fluorophenyl)-N-methylpropanamide]",< 200 nM
4,"CC(=O)N1Cc2ccc(N(C)C(=O)CNc3nc(C(F)(F)F)cc(C(F)(F)F)c3C#N)cc2C1 [Example 59, N-(2-acetylisoindolin-5-yl)-2-((3-cyano-4,6-bis(trifluoromethyl)pyridin-2-yl)amino)-N-methylacetamide]",500 to 1000 nM
5,"CN(C(=O)CNc1nc(C(F)(F)F)cc(C(F)(F)F)c1C#N)c1ccc2occc2c1 [Example 46, N-(benzofuran-5-yl)-2-((3-cyano-4,6-bis(trifluoromethyl)pyridin-2-yl)amino)-N-methylacetamide]",< 200 nM
6,"Cc1c(Cl)cnc(NCC(=O)N(C)c2ccccc2)c1C#N [Example 37, 2-(5-chloro-3-cyano-4-methylpyridin-2-ylamino)-N-methyl-N-phenylacetamide]",200 to 500 nM
7,"N#Cc1c(C(F)(F)F)cc(C(F)(F)F)nc1NCC(=O)N(CC(F)(F)F)c1ccc(F)cc1 [Example 8, 2-(3-cyano-4,6-bis(trifluoromethyl)pyridin-2-yl-amino)-N-(4-fluorophenyl)-N-(2,2,2-trifluoroethyl)-acetamide]",< 200 nM
8,"CN(C(=O)CNc1nc(C(F)(F)F)cc(C(F)(F)F)c1C#N)c1ccc(OC2CC2)cc1 [Example 5, 2-((3-cyano-4,6-bis(trifluoromethyl)pyridin-2-yl)-amino)-N-(4-cyclopropoxyphenyl)-N-methyl-acetamide]",< 200 nM
9,"Cc1nc(N[C@@H](CCO)C(=O)N(C)c2ccc(F)cc2)c(C#N)c(C)c1Cl [Example 15, (S)-2-(5-chloro-3-cyano-4,6-dimethylpyridin-2-yl-amino)-N-(4-fluorophenyl)-4-hydroxy-N-methyl-butanamide]",200 to 500 nM
10,"Cc1nc(NCC(=O)N(C)c2ccc(F)cc2)c(C#N)c(C)c1Cl [Example 42, 2-(5-chloro-3-cyano-4,6-dimethylpyridin-2-ylamino)-N-(4-fluorophenyl)-N-methylacetamide]",< 200 nM
11,"Cc1nc(NCC(=O)N(C)c2ccc(F)cc2F)c(C#N)c(C)c1Cl [Example 26, 2-((5-chloro-3-cyano-4,6-dimethylpyridin-2-yl)-amino)-N-(2,4-difluorophenyl)-N-methylacetamide]",< 200 nM
12,"Cc1nc(NCC(=O)N(C)c2ccc(F)cc2)c(C#N)c2ccccc12 [Example 19, 2-[(4-cyano-1-methylisoquinolin-3-yl)amino]-N-(4-fluorophenyl)-N-methylacetamide]",< 200 nM
13,"CN(C(=O)CNc1nc(C(F)(F)F)cc(C(F)(F)F)c1C#N)c1ccc2sccc2c1 [Example 53, N-(benzo[b]thiophen-5-yl)-2-((3-cyano-4,6-bis(trifluoromethyl)pyridin-2-yl)-amino)-N-methylacetamide]",< 200 nM
14,"CN(C(=O)CNc1nc(C(F)(F)F)cc(C(F)(F)F)c1C#N)c1ccc(F)cc1Cl [Example 48, N-(2-chloro-4-fluorophenyl)-2-((3-cyano-4,6-bis(trifluoromethyl)pyridin-2-yl)-amino)-N-methylacetamide]",< 200 nM
15,"Cc1cc(OCC(=O)N(C)c2ccccc2)nc(C)c1Cl (racemic) [Example 36, 2-(5-chloro-4,6-dimethylpyridin-2-yloxy)-N-methyl-N-phenyl-acetamide]",200 to 500 nM
16,"CN(C(=O)CNc1cc(Cl)cc(Cl)c1)c1ccc(F)cc1 [Example 31, 2-[(3,5-dichlorophenyl)amino]-N-(4-fluorophenyl)-N-methyl-acetamide]",500 to 1000 nM
17,"Cc1nc(N[C@@H](CC(N)=O)C(=O)N(C)c2ccc(F)cc2)c(C#N)c(C)c1Cl [Example 18, (S)-2-(5-chloro-3-cyano-4,6-dimethylpyridin-2-yl-amino)-N1-(4-fluorophenyl)-N1-methylsuccinamide]",200 to 500 nM
18,"CN(C(=O)CNc1cc(Cl)cc(C(F)(F)F)c1)c1ccc(F)cc1 [Example 13, 3-[[3-chloro-5-(trifluoromethyl)phenyl]amino]-N-(4-fluoro-phenyl)-N-methylacetamide]",< 200 nM
19,"Cc1coc2ccc(N(C)C(=O)CNc3nc(C(F)(F)F)cc(C(F)(F)F)c3C#N)cc12 [Example 51, 2-((3-cyano-4,6-bis(trifluoromethyl)pyridin-2-yl)amino)-N-methyl-N-(3-methylbenzofuran-5-yl)acetamide]",< 200 nM
20,"Cc1nc(OCC(=O)N(C)c2ccc(Cl)c(Cl)c2)c(C#N)c(C)c1Cl [Example 33, 2-(5-chloro-3-cyano-4,6-dimethylpyridin-2-yloxy)-N-(3,4-dichlorophenyl)-N-methylacetamide]",< 200 nM
21,"CN(C(=O)CNc1nc(C(F)(F)F)cc(C(F)(F)F)c1C#N)c1ccc(F)cc1C#N [Example 49, 2-((3-cyano-4,6-bis(trifluoromethyl)pyridin-2-yl)amino)-N-(2-cyano-4-fluorophenyl)-N-methylacetamide]",500 to 1000 nM
22,"CN(C(=O)CNc1cc(Cl)cc(Br)c1)c1ccc(F)cc1 [Example 20, 2-[(3-bromo-5-chlorophenyl)amino]-N-(4-fluoro-phenyl)-N-methylacetamide]",200 to 500 nM
23,"Cc1nc(NCC(=O)N(C)c2ccc(Br)cc2)c(C#N)c(C)c1Cl [Example 39, N-(4-bromophenyl)-2-(5-chloro-3-cyano-4,6-dimethyl-pyridin-2-ylamino)-N-methylacetamide]",< 200 nM
24,"Cc1nc(OCC(=O)N(C)c2ccc(F)cc2)c(C#N)c(C)c1Cl [Example 43, 2-[(5-chloro-3-cyano-4,6-dimethylpyridin-2-yl)oxy]-N-(4-fluoro-phenyl)-N-methylacetamide]",< 200 nM
25,"CN(C(=O)CNc1cc(C(F)(F)F)cc(C(F)(F)F)n1)c1ccc(F)cc1 [Example 7, 2-((4,6-bis(trifluoromethyl)pyridin-2-yl)amino)-N-(4-fluoro-phenyl)-N-methylacetamide]",< 200 nM
26,"Cc1nc(OCC(=O)N(C)c2ccc(Cl)cc2)c(C#N)c(C)c1Cl [Example 41, 2-[(5-chloro-3-cyano-4,6-dimethylpyridin-2-yl)oxy]-N-(4-chloro-phenyl)-N-methylacetamide]",< 200 nM
27,"Cc1nc(NCC(=O)N(C)c2ccc(Cl)cc2)c(C#N)c(C)c1Cl [Example 40, 2-(5-chloro-3-cyano-4,6-dimethylpyridin-2-ylamino)-N-(4-chlorophenyl)-N-methylacetamide]",< 200 nM
28,"CN(C(=O)CNc1ncc2c(c1C#N)CCC2)c1ccc(F)cc1 [Example 24, 2-(4-cyano-6,7-dihydro-5H-cyclopenta[c]pyridin-3-ylamino)-N-(4-fluorophenyl)-N-methylacetamide]",500 to 1000 nM
29,"CN(C(=O)CNc1nc(C(F)(F)F)cc(C(F)(F)F)c1C#N)c1ccc(Br)cc1 [Example 61, N-(4-bromophenyl)-2-((3-cyano-4,6-bis(trifluoromethyl)pyridin-2-yl)amino)-N-methylacetamide]",< 200 nM
30,"CN(C(=O)CNc1nc(C(F)(F)F)cc(C(F)(F)F)c1C#N)c1ccc(C#N)cc1 [Example 3, 2-((3-cyano-4,6-bis(trifluoromethyl)pyridin-2-yl)-amino)-N-(4-cyanophenyl)-N-methylacetamide]",200 to 500 nM
